The results in this text go back to ChEMBL document CHEMBL1201862, “PubChem BioAssay data set” (2004).

The structures appear in SMILES notation.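 In this assay, cells in 96-well plates receive the compound at five concentrations for 48 hours. Endpoints are linearly interpolated between the surrounding concentrations. GI50 marks 50% less growth.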 Active and inactive are the calls of the source. Rule as the data show it: active = GI50 up to about 1.1 µM and inactive = higher. A value given as a limit tells only on which side of the number the result lay.

Test systems include HCC 2998; OVCAR-4; UACC-62; SNB-19; SK-MEL-2; MDA-MB-435; TK-10; SF-539; KM12; M14; RXF 393; SK-OV-3; BT-549; NCI-H226; A549; 786-0; SNB-75; LOX IMVI; U-251; UO-31.
Experiment in all cases: NCI tumour cell line growth inhibition, 48 h

In the case of `COCCOC1=CC(=O)c2c(O)ccc(O)c2C1=O`, the GI50 in the assay on HCC 2998 is 2.17 µM (inactive); in the assay on OVCAR-4 it was 1.89 µM (inactive); in the assay with UACC-62, 1.85 µM (inactive); with SNB-19, 2.3 µM (inactive); in the assay with SK-MEL-2 it was 1.27 µM (inactive); in the assay on MDA-MB-435, 0.179 µM (active). Besides, the GI50 is 1.91 µM (inactive) with TK-10; 1.73 µM (inactive) in the assay on SF-539; 1.93 µM (inactive) with KM12; 0.186 µM (active) in the assay on M14; 2.19 µM (inactive) with RXF 393; 8.41 µM (inactive) in the assay on SK-OV-3. Besides, the GI50 in the assay with BT-549 is 1.77 µM (inactive); in the assay on NCI-H226, 2.23 µM (inactive); with A549 it was 2 µM (inactive); in the assay with 786-0, 1.64 µM (inactive); with SNB-75, 2 µM (inactive); in the assay with LOX IMVI, 0.726 µM (active). In addition, the GI50 in the assay on U-251 was 1.92 µM (inactive); in the assay on UO-31, 2.17 µM (inactive).

As for `CC(=O)C(C)CCOC1(C)OCCC1C` (stereo not given), the GI50 in the assay with HCC 2998, in the assay on OVCAR-4, in the assay on UACC-62, in the assay on SNB-19, in the assay with SK-MEL-2 and with MDA-MB-435 was > 100 µM (inactive) throughout. Besides, the GI50 in the assay on TK-10, with SF-539, in the assay with KM12, in the assay on M14, in the assay on RXF 393 and in the assay on SK-OV-3 was > 100 µM (inactive) each time. The GI50 in the assay on BT-549, in the assay with NCI-H226, in the assay on A549, with 786-0, with SNB-75 and in the assay on LOX IMVI was > 100 µM (inactive) throughout. Further, the GI50 in the assay with U-251 and in the assay with UO-31 was > 100 µM (inactive) each time.

Turning to `COc1ccc(-c2c(CN3CCOCC3)sc3nc4ccccc4n23)cc1`, the GI50 with HCC 2998 was 19 µM (inactive); in the assay on OVCAR-4 it was 47.6 µM (inactive); with UACC-62, 16.7 µM (inactive); in the assay on SNB-19, 11.5 µM (inactive); in the assay with SK-MEL-2, 30.5 µM (inactive); with MDA-MB-435 it was 2.94 µM (inactive). Further, the GI50 in the assay on TK-10 was 58.6 µM (inactive); with SF-539, 16.8 µM (inactive); in the assay with KM12, 9.48 µM (inactive); in the assay on M14, 7.53 µM (inactive); with RXF 393, 8.55 µM (inactive); with SK-OV-3 it was 21.6 µM (inactive). Besides, the GI50 in the assay on BT-549 was > 49.4 µM (inactive); in the assay on NCI-H226, 42.1 µM (inactive); with A549, 22.2 µM (inactive); in the assay on 786-0, 17.2 µM (inactive); in the assay on SNB-75, 14.3 µM (inactive); with LOX IMVI, 18.5 µM (inactive). The GI50 was 16.1 µM (inactive) in the assay on U-251 and 30.3 µM (inactive) with UO-31.

Turning to `C/C(=N/NC(=S)Nc1ccc(C)cc1)c1ccccn1`, the GI50 with HCC 2998 is 3.48 µM (inactive); in the assay on OVCAR-4, 1.47 µM (inactive); in the assay with UACC-62, 0.105 µM (active); in the assay on SNB-19 it was 2.29 µM (inactive); with SK-MEL-2 it was 1.41 µM (inactive); in the assay with MDA-MB-435, 1.07 µM (active). Further, the GI50 with TK-10 is 0.19 µM (active); with SF-539, 0.815 µM (active); in the assay with KM12, 0.122 µM (active); in the assay with M14, 0.0446 µM (active); with RXF 393, 0.78 µM (active); in the assay with SK-OV-3, 0.0363 µM (active). Besides, the GI50 in the assay with BT-549 is 4.38 µM (inactive); with NCI-H226, 0.0908 µM (active); in the assay with A549, 0.5 µM (active); with 786-0, 0.0427 µM (active); with SNB-75 it was 1.26 µM (inactive); with LOX IMVI, 0.0162 µM (active). The GI50 was 0.125 µM (active) with U-251 and 0.266 µM (active) with UO-31.

Consider `CC1=CC(=O)CC(C)(C)C1(O)/C=C/C(C)=C/C(=O)O` (stereo not given), for which the GI50 in the assay on HCC 2998, with OVCAR-4, in the assay on UACC-62, in the assay on SNB-19, in the assay on SK-MEL-2 and in the assay on MDA-MB-435 was > 100 µM (inactive) throughout. Also, the GI50 in the assay with TK-10, with SF-539, in the assay on KM12, in the assay with M14, in the assay with RXF 393 and in the assay on SK-OV-3 was > 100 µM (inactive) in each case. The GI50 with BT-549, in the assay with NCI-H226, in the assay on A549, with 786-0, with SNB-75 and with LOX IMVI was > 100 µM (inactive) throughout. Besides, the GI50 in the assay with U-251 and with UO-31 was > 100 µM (inactive) in each case.

Regarding `O=C(c1cc2ccccc2[nH]1)N1C2CCC1CN(CCOC(c1ccc(F)cc1)c1ccc(F)cc1)CC2` (stereo not given), the GI50 is > 100 µM (inactive) with HCC 2998; > 100 µM (inactive) with OVCAR-4; 52 µM (inactive) with UACC-62; > 100 µM (inactive) with SNB-19; 81.8 µM (inactive) with SK-MEL-2; > 100 µM (inactive) with MDA-MB-435. In addition, the GI50 with TK-10 was > 100 µM (inactive); in the assay with SF-539, 19.1 µM (inactive); in the assay with KM12, 60.3 µM (inactive); in the assay with M14, > 100 µM (inactive); in the assay on RXF 393 it was 3.97 µM (inactive); with SK-OV-3, > 100 µM (inactive). In addition, the GI50 in the assay on BT-549 is > 100 µM (inactive); with NCI-H226, 6.9 µM (inactive); in the assay on A549, 34.9 µM (inactive); in the assay on 786-0 it was > 100 µM (inactive); with SNB-75, > 100 µM (inactive); in the assay on LOX IMVI, 9.48 µM (inactive). Besides, the GI50 is 3.99 µM (inactive) with U-251 and 3.22 µM (inactive) with UO-31.

Turning to `Nc1c(C(=O)c2ccc(Cl)cc2)[nH]c(NCc2ccccc2)c1C(=S)Nc1ccccc1`, the GI50 is 0.372 µM (active) with HCC 2998; 1.66 µM (inactive) with OVCAR-4; 8.15 µM (inactive) in the assay with UACC-62; 4.07 µM (inactive) in the assay on SNB-19; 1.91 µM (inactive) in the assay on SK-MEL-2; 1.74 µM (inactive) in the assay on MDA-MB-435. For the same molecule, the GI50 in the assay with TK-10 is 2.09 µM (inactive); in the assay on SF-539 it was 4.62 µM (inactive); in the assay on KM12, 1.67 µM (inactive); in the assay with M14, 1.96 µM (inactive); with RXF 393 it was 1.79 µM (inactive); in the assay on SK-OV-3, 20.1 µM (inactive). The GI50 is 2.49 µM (inactive) with BT-549; 7.91 µM (inactive) with NCI-H226; 2.18 µM (inactive) in the assay with A549; 1.72 µM (inactive) in the assay on 786-0; 1.71 µM (inactive) in the assay with SNB-75; 1.8 µM (inactive) in the assay with LOX IMVI. Further, the GI50 with U-251 is 1.72 µM (inactive); in the assay with UO-31, 1.58 µM (inactive).
